These results are taken from PubChem BioAssay (NCI).

Holding throughout (assay): DTP human tumour cell line panel, 48 h
For experiment [1], the system named is A549 NSCLC.
In experiment [2] the test system is HOP-92 NSCLC.
The subject of experiment [3] is SR leukemia.
Experiment [4] has as its system SK-MEL-28 melanoma.
Experiment [5] deals with HL-60(TB) leukemia.
Experiment [6] deals with NCI-H522 lung.
For experiment [7], the system named is 786-0 renal.
Experiment [8] deals with HCT-116 colon.
Experiment [9] concerns EKVX NSCLC.
Experiment [10] deals with SF-295 CNS.

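Each compound was tested at five concentrations against cells in 96-well plates for 48 hours. Here, GI50 denotes the concentration required for 50% inhibition of growth. TGI: concentration producing complete growth inhibition.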

The TGI is the concentration at which net growth stops. A high value points to lower sensitivity of the cells. Regarding `N#C/C(=C\c1ccccc1)C(NO)Nc1ccccc1` (stereo not drawn), the TGI in experiment [1], in experiment [2], in experiment [3], in [4], in experiment [5] and in experiment [6] was over 100 µM in each case. The TGI in experiment [7], in [8], in [9] and in experiment [10] was over 100 µM each time.

In the case of `C=Cc1c(C)c2cc3[nH]c(cc4nc(cc5nc(cc1[nH]2)C(C)=C5CCC(=O)N(CC)CC)C(CCC(=O)N(CC)CC)=C4C)c(C)c3C=C`, the TGI in experiment [1], in experiment [2], in [3], in [4], in experiment [5] and in experiment [6] was over 100 µM in each case. In addition, the TGI in experiment [7], in experiment [8], in [9] and in experiment [10] was over 100 µM each time.

For `S=C(CSc1ccccc1)Nc1cccc2ccccc12`, the TGI in experiment [1] was over 100 µM; in experiment [2], over 100 µM; in experiment [3], 68.8 µM; in experiment [4], over 100 µM; in [5], over 100 µM; in experiment [6] it was over 100 µM. Besides, the TGI was over 100 µM in experiment [7], over 100 µM in [8], over 100 µM in [9] and 97.1 µM in experiment [10].

Turning to `CCC(=O)C(C(=O)CC)c1c(OC(=O)c2ccccc2)ccc(O)c1C(=O)OC`, the TGI in experiment [1], in [2], in [3], in experiment [4], in experiment [5] and in experiment [6] was over 100 µM each time. Moreover, the TGI in experiment [7], in experiment [8], in [9] and in experiment [10] was over 100 µM throughout.

Consider `CC[C@@H](O)C[C@H]1CCC[C@@]2(C[C@@H]3OC(=O)/C=C/[C@@](C)(O)[C@@H](O)[C@H](C)[C@@H](O)[C@H](OC4CCC(N(C)C)C(C)O4)[C@@H](O)[C@](C)(O)CCCCC/C=C/[C@@H]4CC(C)(C)O[C@@]4(O)C[C@H](O2)[C@H]3C)O1` (stereo partly drawn), for which the TGI in [1] is 20.5 µM; in experiment [2], 37.2 µM; in [3], 9.42 µM; in experiment [4], 36.8 µM; in [5], over 39.8 µM; in [6], 12.3 µM. For the same compound, the TGI in experiment [7] turned out to be 34.1 µM; in experiment [8] it was 26.2 µM; in experiment [9], 19.1 µM; in [10] it was 21.6 µM.

Take `OC(COc1ccccc1)CN1CCCCC1` (stereo not drawn): the TGI in experiment [1], in experiment [2], in [3], in experiment [4], in experiment [5] and in experiment [6] was over 100 µM throughout. The TGI in [7], in experiment [8], in experiment [9] and in [10] was over 100 µM throughout.

A word on the GI50: it is the concentration that inhibits growth by half. Consider `NCCOc1ncccc1/C=C1\c2ccccc2-c2ccc([N+](=O)[O-])cc21`, for which the GI50 in experiment [1] is under 0.01 µM; in [2], 0.0234 µM; in experiment [3] it was under 0.01 µM; in [4], 0.241 µM; in experiment [5], 0.0165 µM; in experiment [6], 0.0684 µM. For the same compound, the GI50 in experiment [7] is 0.0268 µM; in [8], 0.0455 µM; in experiment [9] it was 0.116 µM; in [10], 0.0246 µM. Moreover, the TGI in experiment [1] came to 0.204 µM; in experiment [2] it was 0.477 µM; in [3] it was 1.1 µM; in [4], 1.06 µM; in experiment [5], 0.121 µM; in experiment [6] it was 0.438 µM. For the same compound, the TGI in [7] is 0.139 µM; in experiment [8], 0.237 µM; in experiment [9] it was 0.474 µM; in experiment [10], 0.161 µM.

As for `Cc1noc(C)c1-c1cnc2c(-c3ccc(C(=O)O)cc3)cn([C@@H](C)c3ccccn3)c2c1`, the GI50 in experiment [1] is 3.25 µM; in experiment [2], 0.212 µM; in experiment [3], 0.838 µM; in [4], 5.44 µM; in [5] it was 0.253 µM; in [6], 0.231 µM. Moreover, the GI50 in [7] is 2.13 µM; in experiment [8] it was 1.14 µM; in experiment [9], 0.58 µM; in experiment [10], 3.71 µM. Besides, the TGI in experiment [1] is over 100 µM; in [2] it was over 100 µM; in experiment [3], over 100 µM; in [4], over 100 µM; in experiment [5], over 100 µM; in [6] it was over 49.7 µM. The TGI in experiment [7], in [8], in experiment [9] and in [10] was over 100 µM throughout.

Take `COc1ccc2c(c1)O/C(=C\c1cccc(OCC(=O)Nc3nc(C)c(C)s3)c1)C2=O`: the GI50 in experiment [1] is 2.18 µM; in [2], 1.32 µM; in experiment [3] it was 0.537 µM; in experiment [4] it was 20.9 µM; in experiment [5] it was 1.48 µM; in experiment [6], 1.26 µM. The GI50 in [7] was 0.715 µM; in [8], 5.53 µM; in experiment [9], 8.42 µM; in [10] it was 28.9 µM. Further, the total growth inhibition concentration (TGI) in experiment [1] was 6.43 µM; in [2], 3.09 µM; in experiment [3] it was 1.37 µM; in experiment [4], over 100 µM; in experiment [5], 3.16 µM; in experiment [6], 2.95 µM. Also, the TGI was 2.08 µM in experiment [7], over 53.3 µM in experiment [8], over 54.1 µM in experiment [9] and over 100 µM in experiment [10].

`CCN(CC)c1ccc(N=Nc2ccc(-c3nc4cccn(C)c-4n3)cc2)cc1`: the TGI was determined as 25.6 µM in experiment [1]; 33 µM in experiment [2]; 14.8 µM in experiment [3]; 4.79 µM in experiment [5]; 19.9 µM in experiment [6]; 17 µM in experiment [7]. The TGI in experiment [8] worked out at 15.6 µM; in experiment [9] it was 84.9 µM; in experiment [10] it was 19.4 µM.

Turning to `COc1cc(C2c3cc4c(cc3[C@@H](N(C)c3ccc(N(C)C)cc3)C3COC(=O)C23)OCO4)cc(OC)c1O` (stereo partly drawn), the concentration for total growth inhibition (TGI) amounted to 36.8 µM in [2]; 44.2 µM in experiment [3]; 27.3 µM in experiment [4]; 7.84 µM in experiment [5]; 0.553 µM in [6]; 26.4 µM in [7]. Besides, the TGI in experiment [8] was determined as 14.8 µM; in experiment [9], 44.2 µM; in experiment [10], 0.325 µM.
